pEC50: −log10 of the molar value. Read-outs that look alike come from different tables or passages of the source.
System: HCV 1b genotype
Experiment: HCV Replicon assay
Format: cell-based
Details: HCV 1b genotype replicon; for pEC50: read-out: 1b EC50 Range
Description: An HCV Replicon assay was utilized in the present disclosure, and was prepared, conducted and validated as described in commonly owned PCT/US2006/022197 and in O'Boyle et. al. Antimicrob Agents Chemother. 2005 April; 49(4):1346-53. Assay methods incorporating luciferase reporters have also been used as described (Apath.com).
HCV-neo replicon cells and replicon cells containing mutations in the NS5A region were used to test the currently described family of compounds. The compounds were determined to have more than 10-fold less inhibitory activity on cells containing mutations than wild-type cells. Thus, the compounds of the present disclosure can be effective in inhibiting the function of the HCV NS5A protein and are understood to be as effective in combinations as previously described in application PCT/US2006/022197 and commonly owned WO/04014852. Further, the compounds of the present disclosure can be effective against the HCV 1b genotype. It should also be understood that the compounds of the present disclosure can inhibit multiple genotypes of HCV. […] In one embodiment, compounds of the present disclosure are inhibitory versus 1a, 1b, 2a, 2b, 3a, 4a, and 5a genotypes.

Structure (SMILES) | pEC50 (Hepatitis C virus) | EC50 (Hepatitis C virus, read-out: 1b EC50 (in nM or range)) | pEC50
COC(=O)N[C@H](C(=O)N1[C@@H]2C[C@@H]2C[C@H]1c1ncc(-c2ccc(C34CCC(c5cnc([C@@H]6C[C@H]7C[C@H]7N6C(=O)[C@@H](NC(=O)OC)C(C)C)[nH]5)(CC3)CC4)cc2)[nH]1)C(C)C [Example M-5, methyl ((1S)-1-(((1R,3S,5R)-3-(5-(4-(4-(2-((1R,3S,5R)-2-((2S)-2-((methoxycarbonyl)amino)-3-methylbutanoyl)-2-azabicyclo[3.1.0]hex-3-yl)-1H-imidazol-5-yl)bicyclo[2.2.2]oct-1-yl)phenyl)-1H-imidazol-2-yl)-2-azabicyclo[3.1.0]hex-2-yl)carbonyl)-2-methylpropyl)carbamate] | 8.34 to 8.70 |  | 
CC[C@H](NC(=O)OC)C(=O)N1[C@@H]2C[C@@H]2C[C@H]1c1ncc(-c2ccc(C34CCC(c5cnc([C@@H]6C[C@H]7C[C@H]7N6C(=O)[C@H](CC)NC(=O)OC)[nH]5)(CC3)CC4)cc2)[nH]1 [Example M-6, methyl ((1S)-1-(((1R,3S,5R)-3-(5-(4-(4-(2-((1R,3S,5R)-2-((2S)-2-((methoxycarbonyl)amino)butanoyl)-2-azabicyclo[3.1.0]hex-3-yl)-1H-imidazol-5-yl)bicyclo[2.2.2]oct-1-yl)phenyl)-1H-imidazol-2-yl)-2-azabicyclo[3.1.0]hex-2-yl)carbonyl)propyl)carbamate] | 8.34 to 8.70 |  | 
COC(=O)N[C@H](C(=O)N1CCC[C@H]1c1nc(-c2ccc(C34CCC(c5c[nH]c([C@@H]6CCCN6C(=O)[C@@H](NC(=O)OC)C(C)C)n5)(CC3)CC4)cc2)c[nH]1)C(C)C [Example M-1, methyl ((1S)-1-(((2S)-2-(4-(4-(4-(2-((2S)-1-((2S)-2-((methoxycarbonyl)amino)-3-methylbutanoyl)-2-pyrrolidinyl)-1H-imidazol-4-yl)phenyl)bicyclo[2.2.2]oct-1-yl)-1H-imidazol-2-yl)-1-pyrrolidinyl)carbonyl)-2-methylpropyl)carbamate] | 8.34 to 8.70 | 0.009 nM | 
COC[C@H](NC(=O)OC)C(=O)N1CCC[C@H]1c1nc(C2=CCC(C3CC=C(c4c[nH]c([C@@H]5CCCN5C(=O)[C@H](COC)NC(=O)OC)n4)CC3)CC2)c[nH]1 (stereo partly drawn) [QC-4, methyl ((1S)-2-((2S)-2-(4-(4′-(2-((2S)-1-(N-(methoxycarbonyl)-O-methyl-L-seryl)-2-pyrrolidinyl)-1H-imidazol-4-yl)-1,1′-bi(3-cyclohexen-1-yl)-4-yl)-1H-imidazol-2-yl)-1-pyrrolidinyl)-1-(methoxymethyl)-2-oxoethyl)carbamate] |  |  | 7.00 to 8.34
COC[C@H](NC(=O)OC)C(=O)N1CCC[C@H]1c1nc(C2=CCC(c3ccc(-c4c[nH]c([C@@H]5CCCN5C(=O)[C@H](COC)NC(=O)OC)n4)cc3)CC2)c[nH]1 (stereo partly drawn) [QC-11, methyl ((1S)-2-((2S)-2-(4-(4-(4-(2-((2S)-1-(N-(methoxycarbonyl)-O-methyl-L-seryl)-2-pyrrolidinyl)-1H-imidazol-4-yl)-3-cyclohexen-1-yl)phenyl)-1H-imidazol-2-yl)-1-pyrrolidinyl)-1-(methoxymethyl)-2-oxoethyl)carbamate] | 7.00 to 8.34 |  | 
COC(=O)N[C@H](C(=O)N1CCC[C@H]1c1nc(-c2ccc(C34CCC(c5coc([C@@H]6CCCN6C(=O)[C@@H](NC(=O)OC)C(C)C)n5)(CC3)CC4)cc2)c[nH]1)C(C)C [Example M-4, methyl ((1S)-1-(((2S)-2-(4-(4-(4-(2-((2S)-1-((2S)-2-((methoxycarbonyl)amino)-3-methylbutanoyl)-2-pyrrolidinyl)-1H-imidazol-4-yl)phenyl)bicyclo[2.2.2]oct-1-yl)-1,3-oxazol-2-yl)-1-pyrrolidinyl)carbonyl)-2-methylpropyl)carbamate] | 5.00 to 6.00 |  | 
COC(=O)N[C@@H](C)C(=O)N1CCC[C@H]1c1nc(-c2ccc(C34CCC(c5c[nH]c([C@@H]6CCCN6C(=O)[C@H](C)NC(=O)OC)n5)(CC3)CC4)cc2)c[nH]1 [Example M-2, methyl ((1S)-2-((2S)-2-(4-(4-(4-(2-((2S)-1-(N-(methoxycarbonyl)-L-alanyl)-2-pyrrolidinyl)-1H-imidazol-4-yl)bicyclo[2.2.2]oct-1-yl)phenyl)-1H-imidazol-2-yl)-1-pyrrolidinyl)-1-methyl-2-oxoethyl)carbamate] | 7.00 to 8.34 |  | 
